Values after ≈ are worked out from the molar mass of the structure shown. Read-outs that look alike come from different tables or passages of the source.
Test system: S. aureus ATCC 29213
Test: microbe, parasite or virus in culture
Conditions: for MIC: Staphylococcus aureus; for Increase of MIC: relative to first passage
Protocol: To determine the MICs of CSP-4, a single colony of S. aureus ATCC 29213 was cultured at 37° C in tryptic soy broth, as well as daptomycin and linezolid, which served as commercial antibiotic positive controls. […] For each agent, the MIC was determined daily for 29 days at pH 5.5 and/or for 8 days at pH 7.4 using cells from wells containing half the MIC (1/2 MIC well). […] All MICs were determined in duplicate.

[1] = after 8 passages at pH 7.4, 10 mM sodium phosphate buffer, 10% tryptic soy broth

SMILES	MIC (ATCC29213, pH 5.5, read-out: MIC at start of resistance induction) [µM]	MIC (ATCC29213, pH 7.4, read-out: MIC at start of resistance induction) [µM]	Increase of MIC [1]	Passages over which resistance was induced (pH 5.5) [passages]	Passages after which resistance was induced (pH 7.4) [passages]	Increase of MIC (after 29 passages at pH 5.5)	Increase of MIC following prolonged exposure (following prolonged exposure) [fold]	MIC at start of resistance induction (pH 5.5) [µM]	MIC at start of resistance induction (pH 7.4) [µM]
CC(=O)NC[C@H]1CN(c2ccc(N3CCOCC3)c(F)c2)C(=O)O1 [linezolid]	4 (≈ 1.35 µg/mL)	8 (≈ 2.7 µg/mL)	approximately 200 ×	24	5	–	–	–	–
CCCCCCCCCC(=O)N[C@@H](Cc1c[nH]c2ccccc12)C(=O)N[C@H](CC(N)=O)C(=O)N[C@@H](CC(=O)O)C(=O)N[C@@H]1C(=O)NCC(=O)N[C@@H](CCCN)C(=O)N[C@@H](CC(=O)O)C(=O)N[C@H](C)C(=O)N[C@@H](CC(=O)O)C(=O)NCC(=O)N[C@H](CO)C(=O)N[C@@H]([C@H](C)CC(=O)O)C(=O)N[C@@H](CC(=O)c2ccccc2N)C(=O)O[C@@H]1C [daptomycin]	–	–	approximately 1000 ×	24	5	over 8000 ×	≤ 8000	0.25	4
